Columns and labels:
[1] = Ratiometric fluorescence responses (F624/F528) of MS4 and MS5 to various metal ions; settings: 5 μM probe, 50 equiv metal ion, 50 mM HEPES, 100 mM KCl, pH 8, excitation 499 nm
Description: (§1) FIG. 9 depicts the ratiometric fluorescence spectroscopic responses of MS4 to various metal ions. Bars represent the ratio of fluorescence intensities collected at 624 and 528 nm (F624/F528). All spectra were acquired in 50 mM HEPES, 100 mM KCl, pH 8. Grey bars represent the addition of an excess of the appropriate metal ion (50 equiv metal ion of interest) to a 5 μM solution of MS4. Dark grey bars represent the subsequent addition of 50 equiv Hg^2+ to the solution. Excitation was provided at 499 nm.
as §1, with “FIG. 10” for “FIG. 9”, “of MS5” for “of MS4”, “of MS5.” for “of MS4.”
Millipore water was used to prepare all aqueous solutions. […] Fluorescence spectra were collected by using a Photon Technology International (Lawrenceville, N.J.) Quanta Master 4L-format scanning spectrofluorimeter equipped with an LPS-220B 75-W xenon lamp and power supply, A-1010B lamp housing with integrated igniter, switchable 814 photon-counting/analog PMT detector, and a MD-5020 motor driver. […]

[2] = Fluorescence spectroscopy: quantum yield and ratiometric emission response to Zn2+; format: physicochemical; settings: pH 7.5
Description: FIG. 3. Ratiometric fluorescence spectroscopic response of 20 μM ZNP1 to buffered Zn^2+ solutions. Spectra were acquired in 50 mM HEPES, 100 mM KCl, pH 7.5. Excitation was provided at 499 nm. A standard EDTA/Ca^2+/Zn^2+ dual-metal buffer system was employed to deliver controlled concentrations of buffered free Zn^2+. The spectra shown are for free Zn^2+ buffered at 0, 0.17, 0.42, 0.79, 1.3, 2.1, 3.4, 5.6, and 10.2 nM, respectively.
Quantum yield, Φ, may be obtained by comparison of the integrated area of the corrected emission spectrum of the sample with that of a reference solution. A preferred reference solution is a solution of fluorescein in 0.1 N NaOH, quantum efficiency 0.95. The concentration of the reference is adjusted to match the absorbance, Abs, of the test sample. The quantum yields may be calculated using the following equation:
ZNP1 was evaluated at physiological ionic strength and pH [50 mM HEPES (4-(2-hydroxyethyl)-1-piperazineethanesulfonic acid), 100 mM KCl, pH 7.5] in the presence of EDTA (ethylenediaminetetraacetic acid) to scavenge adventitious metal ions. […] The quantum yield for apo ZNP1 is 0.02.
The observed changes in absorption and emission spectra occur up to a 1:1 [Zn^2+][ZNP1] ratio, indicating the likely formation of a 1:1 complex. Upon addition of Zn^2+, the visible absorption profile of the ZNP1 chemosensor red shifts to a single broad peak centered at 547 nm (ε=2.2×10^4 M^−1cm^−1). Excitation at 499 nm produces a fluorescence spectrum featuring one dominant emission band centered at 624 nm with a minor component centered at 545 nm (FIG. 3). The quantum yield for Zn^2+-ZNP1 complex is 0.05. […] The ratio of naphthofluorescein- to fluorescein-like emission intensities (λ624/λ528) upon 499-nm excitation varies from 0.4 in the absence of Zn^2+ to 7.1 in the presence of Zn^2+, an 18-fold increase.
(§2) Millipore water was used to prepare all aqueous solutions, which were passed through 0.2 um cellulose filters prior to use. All spectroscopic measurements were performed under simulated physiological conditions using buffer solutions containing 50 mM HEPES, 4-(2-hydroxyethyl)-1-piperazineethanesulfonic acid, and 100 mM KCl adjusted to pH 7.5. A glass electrode (Orion), calibrated prior to each use, was used to determine solution pH. Solutions of Zn^2+ were prepared from 100 mM stock solutions of ZnCl2 in water. Absorption spectra were recorded on a Hewlett-Packard 8453A diode array spectrophotometer, and fluorescence spectra on a Photon Technology International (PTI) Quanta Master 4 L-format scanning spectrofluorimeter equipped with an LPS-220B 75-watt xenon lamp and power supply, A-1010B lamp housing with integrated igniter, switchable 814 photon-counting/analog photomultiplier detection unit, and MD-5020 motor driver. Samples for absorption and emission measurements were contained in 1 cm×1 cm quartz cuvettes (3.5 mL volume, Stama). The experiments for measuring quantum yields, apparent dissociation constants (Kd), and metal ion selectivities were performed by using standard protocols. Quantum yields were determined by reference to fluorescein in 0.1 N NaOH (Φ=0.95). Confocal fluorescence imaging experiments were performed with a Zeiss LSM510 laser scanning microscopy system containing an Axiovert 200M inverted fluorescence microscope. The microscope was equipped with an argon ion laser (488-nm excitation) and objective lenses (100×), and scanning was performed using the META detection system operating in lambda mode (Zeiss) with 10.7 nm collection windows. During imaging measurements, cell samples were kept on the microscope stage in a CTI-3700 incubator at 37° C. under 5% CO2. Additions of Zn^2+ as the pyrithione complex (2-mercaptopyridine N-oxide), TPEN [N,N,N′,N′-tetra(2-picolyl)ethylenediamine], or SNOC (S-nitrosocysteine) to cell samples were performed directly on the microscope stage by bath application to the media. SNOC was prepared immediately before use.

[3] = Metal ion selectivity of the ratiometric fluorescence response (F624/F528) of ZNP1
Description: FIG. 4. Ratiometric fluorescence spectroscopic responses of ZNP1 to various metal ions. Bars represent the ratio of fluorescence intensities collected at 624 and 528 nm (F624/F528). All spectra were acquired in 50 mM HEPES, 100 mM KCl, pH 7.5. White bars represent the addition of an excess of the appropriate metal ion (2 mM for Ca^2+ and Mg^2+, 100 μM for all other metal ions) to a 10 μM solution of ZNP1. Grey bars represent the subsequent addition of 100 μM Zn^2+ to the solution. Excitation was provided at 499 nm.
The emission profiles of apo or Zn^2+-bound ZNP1 are unperturbed in the presence of 2 mM Ca^2+ or Mg^2+, indicating a degree of selectivity for Zn^2+ over these biologically competing alkaline earth cations.
as §2, with “SNOC was prepared immediately before use.” left out

COS-7 cells = test: Cell membrane permeability and ratio confocal fluorescence imaging of intracellular Zn2+ in live COS-7 cells; format: cell-based
Description: FIG. 5. Ratio confocal fluorescence imaging in COS-7 cells using the Zeiss LSM510 META system operating in the lambda mode. Fluorescence was collected in 10.7 nm optical windows centered at 612 and 526 nm. Pseudocolor figures depict the ratio of fluorescence intensities at these two emission wavelengths. (a) Ratio confocal fluorescence images of live COS-7 cells labeled with ZNP1. Incubation of cells with 20 μM ZNP1-Ac for 20 min at 37° C. (left), ZNP1-stained cells loaded with 50 μM Zn(pyrithione)2 for 5 min (middle), and reversal of the cytosolic ratio enhancements with 100 μM TPEN (right). Confocal images were taken from a middle optical section (vertical dimension) of the cell samples. (b) Confocal fluorescence images of NO-triggered release of endogenous Zn^2+ in live COS-7 cells. Incubation of cells with 20 μM ZNP1-Ac for 20 min at 37° C. (left), ZNP1-stained cells treated with 10 mM SNOC (S-nitrosocysteine, middle) for 1 hr, and reversal of the observed ratio increases with 2 mM TPEN (right). Confocal images were taken from a middle optical section (vertical dimension) of the cell samples.
We therefore prepared the non-fluorescent diacetate derivative of ZNP1, ZNP1-Ac, anticipating that this more lipophilic derivative would permeate the cell and be transformed to fluorescent ZNP1 by the action of intracellular esterases. […] Ratiometric fluorescence imaging of ZNP1-stained cells is readily performed by using the META detection system operating in lambda mode with optical windows centered at 612 and 526 nm. […] Prompt increases in the ratio of cytosolic fluorescence intensities collected at 612 and 526 nm are observed upon the addition of exogenous Zn^2+ (50 μM) carried by the ionophore pyrithione (2-mercaptopyridine N-oxide, FIG. 5a). […]
The successful use of ZNP1 for monitoring changes in intracellular Zn^2+ concentrations using ratiometric fluorescence imaging led us to apply this probe for detecting endogenous pools of intracellular Zn^2+. […]

## CCSCCN(Cc1ccccn1)Cc1ccccc1NCc1c2oc3c(ccc4cc(O)ccc43)c(-c3ccccc3C(=O)O)c-2ccc1=O [MS4]
[1]
  selectivity for Hg2+ over other metal ions (in words): selectivity for Hg^2+ over metal ions such as Na^+, Ca^2+, and Mg^2+

## CCSCCN(CCSCC)Cc1ccccc1NCc1c2oc3c(ccc4cc(O)ccc43)c(-c3ccccc3C(=O)O)c-2ccc1=O [MS5, 2-{11-[(2-{[Bis-(2-ethylsulfanylethyl)amino]methyl}phenylamino)methyl]-3-hydroxy-10-oxo-10H-benzo[c]xanthen-7-yl}benzoic acid]
[1]
  selectivity for Hg2+ over other metal ions (in words): selectivity for Hg^2+ over metal ions such as Na^+, Ca^2+, and Mg^2+

## O=C(O)c1ccccc1-c1c2ccc(=O)c(CNc3ccccc3CN(Cc3ccccn3)Cc3ccccn3)c-2oc2c1ccc1cc(O)ccc12 [ZNP1, 4-[12-{Bis(2-pyridylmethyl)aminomethyl}-N-methylaniline]-3,10-dibenzoate-spiro[7H-benzo[c]xanthen-7,1′(3′H)-isobenzofuran]-3′-one]
[2]; 20 μM probe, free Zn2+ 0-10.2 nM
  time of fluorescence response to buffered Zn2+: immediately upon mixing
[2]; 499-nm excitation
  increase of λ624/λ528 emission ratio on Zn2+ binding: 18 fold
  ratio of emission intensities λ624/λ528 in the absence of Zn2+: 0.4
  ratio of emission intensities λ624/λ528 in the presence of Zn2+: 7.1
[2]; Zn2+-bound, 50 mM HEPES, 100 mM KCl
  quantum yield, Zn2+ complex: 0.05
[2]; no Zn2+, EDTA present, 50 mM HEPES, 100 mM KCl, reference fluorescein in 0.1 N NaOH
  quantum yield, apo: 0.02
[3]
  selectivity for Zn2+ over other metal ions (in words): selectivity for Zn^2+ over metal ions such as Na^+, K^+, Ca^2+, and Mg^2+
[3]; 10 μM probe, 2 mM Ca2+ or Mg2+, pH 7.5
  emission profiles of apo or Zn2+-bound probe in the presence of Ca2+ or Mg2+: unperturbed
[3]; 10 μM probe, Cu2+, Ni2+, Co2+, Fe2+, Mn2+ 100 μM, then 100 μM Zn2+
  ratiometric response to subsequent addition of 100 μM Zn2+ in the presence of first-row transition metal ions: only the sample containing Mn^2+ affords a ratiometric fluorescence response
[3]; 10 μM probe, metal ions at 10-fold excess over probe
  change in emission ratio with Cu2+, Ni2+, Co2+, Fe2+, Mn2+: no discernable change in emission ratios
COS-7 cells; initial experiments
  permeability to cell membranes: impermeable to cell membranes
COS-7 cells; stained COS-7 cells, 50 μM Zn2+/pyrithione, then 100 μM TPEN
  monitoring of intracellular [Zn2+] changes (612/526 nm ratio): can monitor changes in intracellular [Zn^2+] reversibly
COS-7 cells; stained COS-7 cells, 10 mM S-nitrosocysteine, reversed by 2 mM TPEN
  detection of NO-triggered release of endogenous Zn2+ (612/526 nm ratio): establishes a rise in intracellular [Zn^2+]
